The text below walks through data of patent US20110028566A1, “COMPOSITIONS AND PRODUCTS CONTAINING CYCLOALIPHATIC DIOL ANTIMICROBIAL AGENTS AND METHODS OF USING THE COMPOSITIONS AND PRODUCTS” (EASTMAN CHEMICAL COMPANY, priority 2009, published 2011).

Common to all, as to assay: Microbial challenge testing in BPW
What all share (format): cell-based

One test deals with Candida albicans. The conditions noted are these: BPW, w/v % in label, average of replicates. As for the experimental part:
The microorganisms used in challenge tests are given in Table 3, designated as either ATCC (American Type Culture Collection) or wild type. These wild type organisms were problematic organisms previously isolated from chemical products. In the description for each organism, the bacteria are indicated as either GN (Gram negative) or GP (Gram positive).
All of the microorganisms were grown in Tryptose Soy Broth (TSB), DIFCO™ available from Becton, Dickinson and Company, containing 1% dextrose. Aspergillus niger and Candida albicans were incubated at 22° C.±2° C. for at least 96 hours. All bacteria were incubated at 35° C.±2° C. in a humidified incubator for at least 96 hours.
Aspergillus niger and Candida albicans were also grown on Sabouraud dextrose agar (SDA) at 22° C.±2° C. for 7 to 14 days or until full sporulation was achieved.
The following procedure was followed to determine the amount of each challenge material (inoculum broth) required to produce a 10^8 cfu/mL challenge, which is equivalent to a final test-sample microbial concentration of 10^5 to 10^6 cfu (colony-forming units)/mL.
Using a sterile serological pipette, 1 mL of the growth from each TSB culture was transferred into tubes containing 9 mL phosphate buffer (pH 7.2) and mixed thoroughly. This process was repeated to make serial 1:10 dilutions. Then 0.1 mL of each sample and dilution was inoculated onto agar plates to produce the equivalent of a further 1:10 dilution. C. albicans and A. niger were inoculated onto SDA and bacteria were inoculated onto Plate Count Agar (PCA), DIFCO™ available from Becton, Dickinson and Company. The 0.1 mL aliquots were evenly distributed on the plates using the spread-plate technique. The spread-plate technique is performed by spreading the aliquot over the entire plate surface using a sterile spreading rod while rotating the plate with a rotary auto-plater. After the inoculum was absorbed completely, each plate was inverted and incubated (fungi at 22° C.±2° C. and bacteria at 35° C.±2° C.).
After incubation for at least 48 hours, colonies that had developed on the agar plates were counted and recorded with the corresponding dilution. If counting had to be delayed temporarily, plates were refrigerated, preferably no more than 24 hours, until they could be counted. The number of cfu/mL was determined by multiplying the count by the dilution factor for that particular plate.
Turbidity in Nepholemetric Turbidity Units (NTU) was measured for each serial dilution using the HF-Micro 100 Model Turbidimeter. For each microorganism, the plate counts were compared to the turbidity readings.
On the day of challenge, the Candida albicans inoculum broth was poured through non-absorbent sterile gauze and centrifuged. The […] was then diluted with phosphate buffer (pH 7.2) until the desired turbidity was reached. Using a hemocytometer, a determination was made whether the challenge contained the desired concentration. Dilutions were made through 1.0×10^8 and three SDA spread plates were inoculated with 0.1 mL of each dilution.
Control substrates (“broth alone”) were prepared for each microorganism separately in triplicate by adding 13.5 mL of BPW (pH 7.0) containing 1% (w/v) dextrose to each 20-mL glass tube; then adding 1.5 mL challenge material to produce a final concentration at time zero of 10^5 to 10^6 cfu/mL and a total volume of 15 mL.
Test sample substrates were prepared containing each test material (1,4-CHDM, etc) or combination of test materials at the concentrations shown in Tables 5 and 6.

In test [1] the test system is Staphylococcus epidermidis. To be noted: BPW, w/v % in label, average of replicates; for Grade code, S. epidermidis, 3 Days: 3 days incubation; for Grade code, S. epidermidis, 13 Days: 13 days incubation; for Grade code, S. epidermidis, 30 Days: 30 days incubation. The method in brief: (§1)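 Buffered peptone water (pH 7.0) with 1% (w/v) dextrose was spiked with test material (w/v %) and challenged to a final 10^5 to 10^6 cfu/mL at time zero. Substrates were incubated at 35° C.±2° C. for 14 days, then at ambient room temperature. Broth-alone tubes served as controls.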

The test system of another test is Streptococcus mutans. To be noted: BPW, w/v % in label, average of replicates. The method in brief:
as §1

As to `CCCCCCC(O)CO` (stereo not drawn) [CG, 1,2-octanediol], in the test with Candida albicans (3 days incubation), the “Grade code, C. albicans, 3 Day” value is reported as 3 (101 to 1000 colonies (thus 1000 to 10,000 cfu/mL)). Also, the “Grade code, C. albicans, 14 Day” value with Candida albicans (14 days incubation) is given as 0 (No growth detected or <1 colony (thus <10 cfu/mL)). Besides, the “Grade code, C. albicans, 30 Days” value with Candida albicans (30 days incubation) is on record as 0 (No growth detected or <1 colony (thus <10 cfu/mL)). Also, in test [1] (listed as 0.25% CG), the “Grade code, S. epidermidis, 3 Days” value was 4 (1001 to 10,000 colonies (thus 10,000 cfu/mL to 100,000 cfu/mL)); the “Grade code, S. epidermidis, 13 Days” value was 1 (1 to 51 colonies counted (thus 10 to 510 cfu/mL)); the “Grade code, S. epidermidis, 30 Days” value is on record as 1 (1 to 51 colonies counted (thus 10 to 510 cfu/mL)). In test [1] (listed as 0.5% CG), the “Grade code, S. epidermidis, 3 Days” value is listed as 2 (52 to 100 colonies counted (thus 520 to 1000 cfu/mL)); the “Grade code, S. epidermidis, 13 Days” value was 0 (No growth detected or <1 colony (thus <10 cfu/mL)); the “Grade code, S. epidermidis, 30 Days” value is given as 0 (No growth detected or <1 colony (thus <10 cfu/mL)). Besides, the “Grade code, S. mutans, 3 Day” value in the test with Streptococcus mutans (3 days incubation) is 0 (No growth detected or <1 colony (thus <10 cfu/mL)). Also, the “Grade code, S. mutans, 13 Day” value with Streptococcus mutans (13 days incubation) is recorded as 0 (No growth detected or <1 colony (thus <10 cfu/mL)). Moreover, the “Grade code, S. mutans, 30 Days” value with Streptococcus mutans (30 days incubation) is reported as 0 (No growth detected or <1 colony (thus <10 cfu/mL)).
